Series [1] concerns the target T1, Protein deacetylase HDAC6 (Homo sapiens, UniProt Q9UBN7).
T1 sequence (Q9UBN7 whole entry): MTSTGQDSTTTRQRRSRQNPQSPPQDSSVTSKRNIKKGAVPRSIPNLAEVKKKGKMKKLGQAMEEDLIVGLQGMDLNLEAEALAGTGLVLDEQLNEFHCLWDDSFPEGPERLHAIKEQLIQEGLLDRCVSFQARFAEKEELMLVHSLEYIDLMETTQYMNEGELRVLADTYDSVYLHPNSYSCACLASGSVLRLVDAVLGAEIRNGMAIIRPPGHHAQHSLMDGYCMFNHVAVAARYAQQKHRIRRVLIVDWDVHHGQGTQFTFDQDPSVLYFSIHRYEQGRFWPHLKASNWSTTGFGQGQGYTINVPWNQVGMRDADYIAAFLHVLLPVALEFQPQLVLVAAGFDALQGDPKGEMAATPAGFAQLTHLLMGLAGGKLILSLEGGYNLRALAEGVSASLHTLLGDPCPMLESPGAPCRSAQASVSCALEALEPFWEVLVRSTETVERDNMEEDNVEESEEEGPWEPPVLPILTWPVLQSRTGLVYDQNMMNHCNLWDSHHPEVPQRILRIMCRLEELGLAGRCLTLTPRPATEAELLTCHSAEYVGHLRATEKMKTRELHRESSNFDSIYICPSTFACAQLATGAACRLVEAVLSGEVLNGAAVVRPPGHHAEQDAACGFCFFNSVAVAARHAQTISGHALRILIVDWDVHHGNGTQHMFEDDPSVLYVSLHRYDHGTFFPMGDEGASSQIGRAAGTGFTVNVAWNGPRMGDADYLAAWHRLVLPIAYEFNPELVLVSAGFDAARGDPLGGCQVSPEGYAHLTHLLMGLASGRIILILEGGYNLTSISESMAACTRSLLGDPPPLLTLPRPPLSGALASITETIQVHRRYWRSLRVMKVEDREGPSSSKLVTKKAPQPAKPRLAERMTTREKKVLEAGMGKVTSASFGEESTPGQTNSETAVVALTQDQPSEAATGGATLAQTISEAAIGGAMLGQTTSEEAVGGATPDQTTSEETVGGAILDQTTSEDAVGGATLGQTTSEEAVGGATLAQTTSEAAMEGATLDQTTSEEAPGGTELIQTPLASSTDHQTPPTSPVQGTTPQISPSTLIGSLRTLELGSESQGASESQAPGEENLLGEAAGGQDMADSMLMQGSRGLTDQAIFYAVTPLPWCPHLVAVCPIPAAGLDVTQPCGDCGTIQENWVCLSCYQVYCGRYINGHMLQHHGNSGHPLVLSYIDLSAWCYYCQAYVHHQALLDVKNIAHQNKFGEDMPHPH
Nature of the series: Inhibition of full length TEV-cleavable N-terminal His6-tagged human recombinant HDAC6 using Ac-RGK (Ac)-AMC as substrate preincubated for 20 hrs followed by substrate addition and measured after 3 hrs by microplate reader analysis.

Series [2] is described as follows: Aqueous solubility of the compound at pH 7.4. Format: physicochemical.
The target of series [3] is T1, Protein deacetylase HDAC6. Nature of the series: Inhibition of HDAC6 in human BEAS-2B cells assessed as deacetylation of acetylated alpha-tubulin level incubated for 24 hrs by Western blot analysis. Format: cell-based. A general note: Immunoblotting shows a protein as a band on a membrane.
Series [4] has as its target T1, Protein deacetylase HDAC6. Nature of the series: Inhibition of HDAC6 in human BEAS-2B cells assessed as deacetylation of acetylated histone-3 level incubated for 24 hrs by Western blot analysis. Format: cell-based.
The subject of series [5] is THP-1. Briefly: Cytotoxicity against human THP-1 cells assessed as reduction in cell viability by alamar blue staining based assay. Format: functional. As to conditions: for pIC50: read-out: IC50; for IC50: read-out: pIC50 (converted). For orientation: Alamar Blue is a resazurin reagent that responds to reducing activity.
A short description of series [6]: Metabolic stability in human liver microsomes assessed as disappearance of parent compound. Format: ADME, Microsome. As to conditions: read-out: CLH. A general note: Liver microsomes are a subcellular fraction often used to study metabolism.
A short description of series [7]: Chemical stability of compound in HCL solution at pH 1 assessed as half life by UPLC analysis. Format: physicochemical.
Series [8] can be described thus: Chemical stability of compound in sodium phosphate buffer at pH 7.4 assessed as half life by UPLC analysis. Format: physicochemical.
Series [9] in a line: Chemical stability of compound in sodium carbonate buffer at pH 10 assessed as half life by UPLC analysis. Format: physicochemical.
Series [10] concerns the target T1, Protein deacetylase HDAC6. Briefly: Stability of the compound assessed as full-length human HDAC6 mediated-drug degradation measured after 96 hrs by time-resolved mass spectrometry analysis. Format: ADME.
The subject of series [11] is THP-1. Briefly: Cytotoxicity against human THP-1 cells assessed as reduction in cell viability measured upto 250 uM by alamar blue staining based assay. Format: functional.
The target of series [12] is T2, Protein deacetylase HDAC6 (Homo sapiens) (UniProt Q9UBN7).
T2 sequence (whole entry): T1 sequence (Q9UBN7 whole entry)
Nature of the series: Inhibition of HDAC6 in human BEAS-2B cells assessed as deacetylation of acetylated alpha-tubulin level at 10 uM incubated for 24 hrs by Western blot analysis. Format: cell-based.

The results in this text go back to ChEMBL document CHEMBL5370608, “Selective and Bioavailable HDAC6 2-(Difluoromethyl)-1,3,4-oxadiazole Substrate Inhibitors and Modeling of Their Bioactivation Mechanism” (J Med Chem, 2023).

pEC50, pIC50: −log10 of the molar value. Values after ≈ are worked out from the molar mass of the structure shown. Active and inactive are the calls of the source. The calls are words filed in the database; no cut-off is given here.

For orientation: pIC50 means the IC50 on a negative log10 scale, so that one unit is a factor of ten. The term solubility denotes the concentration that dissolves in the medium under given conditions. A word on the pEC50: it is the negative decadic logarithm of the EC50, by convention in mol/L. As usually defined, the half-life is how long it takes for the measured level to halve. Take `O=C(NO)c1cc(F)c(Cn2nnc(-c3ccccn3)n2)c(F)c1`: the pIC50 was over 9.50 in [1], 5.30 in series [4] and 4.22 with THP-1 [5]. Moreover, in series [2], the concentration in solution (solubility) came to 710 µM (≈ 236 µg/mL). For the same compound, the pEC50 in series [3] was 7.70. Moreover, the IC50 with THP-1 [5] is 63100 nM. For the same compound, the microsomal CLint in series [6] was under 3 µL/min/mg. The half-life in [7] was 624 h; in [8] it was 1730 h; in [9] it was 504 h. Besides, the Stability entry in [10] is “Stable”.

`COc1cccc(-c2nnn(Cc3ccc(-c4nnc(C(F)F)o4)cn3)n2)c1`: the pIC50 in series [1] was 8.70; in [4] it was under 5.00. In [2], this compound yielded a solubility of 2.9 µM (≈ 1.12 µg/mL). Moreover, the pEC50 in series [3] is 6.50. Also, the microsomal CLint in series [6] was 18 µL/min/mg.

For the compound `Fc1cc(-c2nnc(C(F)F)o2)cc(F)c1Cn1nnc(-c2ccccn2)n1`, the pIC50 in series [1] was 8.20; in series [4], under 5.00. The solubility in series [2] was 52 µM (≈ 20.3 µg/mL). Besides, the pEC50 in series [3] was 5.50. For the same compound, in the series on THP-1 [5], the IC50 is over 251000 nM. Also, the microsomal CLint in [6] was under 3 µL/min/mg. For the same compound, the result with THP-1 [11] was inactive. Also, the half-life in series [7] is under 13.7 h; in [8], 57.6 h; in [9], under 13.7 h.

Regarding `COc1cccc(CNC(=O)c2csc(-c3nnn(Cc4ccc(-c5nnc(C(F)(F)F)o5)cc4)n3)c2)c1`, in series [1], the pIC50 was 7.90. Moreover, the inhibition entry in series [12] is “inactive”.

In the case of `FC(F)c1nnc(-c2ccc(Cn3nnc(-c4cccnc4)n3)nc2)o1`, the figures for the pIC50 in [1] and in [4] were 8.90 and under 5.00, respectively. This compound also had a solubility in series [2] of 170 µM (≈ 60.6 µg/mL). Further, the pEC50 in series [3] is 6.00. Also, the microsomal CLint in series [6] was under 3 µL/min/mg.

Take `FC(F)c1nnc(-c2ccc(Cn3nnc(-c4ccccn4)n3)cc2)o1`: the pIC50 in series [1] was 8.70; in series [4] it was under 5.00. The same compound came in with a solubility in series [2] of 14 µM (≈ 4.97 µg/mL). For the same compound, the pEC50 in [3] was 5.50. The IC50 with THP-1 [5] was over 251000 nM. Moreover, the microsomal CLint in series [6] was under 3 µL/min/mg. Further, the outcome in the series with THP-1 [11] was inactive. Besides, the values for the half-life in [7], in series [8] and in [9] were 7.44 h, 240 h and under 13.7 h, respectively.

As for `FC(F)c1nnc(-c2ccc(Cn3nnc(-c4ccccc4)n3)nc2)o1`, the pIC50 in series [1] was 9.10; in [4], under 5.00. The solubility in series [2] was determined as 2.9 µM (≈ 1.03 µg/mL). Besides, the pEC50 in series [3] is 6.50. For the same compound, in the series on THP-1 [5], the IC50 was over 251000 nM. Further, the microsomal CLint in series [6] was under 3 µL/min/mg. The result with THP-1 [11] was inactive.

As to `FC(F)c1nnc(-c2ccc(Cn3nnc(-c4ccc(Cl)cc4)n3)nc2)o1`, the pIC50 was 8.70 in series [1] and under 5.00 in series [4]. Besides, the solubility in series [2] turned out to be 1.3 µM (≈ 0.507 µg/mL). The negative-log EC50 (pEC50) in series [3] is 5.90. Further, the microsomal CLint in series [6] was under 3 µL/min/mg.

On to `COc1cccc(CNC(=O)c2csc(-c3nnn(Cc4ccc(-c5nnc(C(F)F)o5)cc4)n3)c2)c1`, for which the pIC50 was 8.80 in series [1] and 8.00 in series [3]. This compound registered a solubility in series [2] of under 1.6 µM. Besides, the microsomal CLint in [6] came to 160 µL/min/mg.

Consider `COc1cccc(CNC(=O)c2csc(-c3nnn(Cc4ccc(-c5nnc(C)o5)cc4)n3)c2)c1`, for which the pIC50 in series [1] was under 4.00.

For the compound `COc1cccc(CNC(=O)c2csc(-c3nnn(Cc4ccc(C(=O)NO)cc4)n3)c2)c1`, the pIC50 in [3] is 6.70.

`FC(F)c1nnc(-c2ccc(Cn3nnc(-c4ccccc4Cl)n3)nc2)o1`: the pIC50 in series [1] is 9.20; in [4], under 5.00. In series [2], the solubility is 5.8 µM (≈ 2.26 µg/mL). Further, in series [3], the pEC50 was 6.40. Further, the IC50 with THP-1 [5] is over 251000 nM. The microsomal CLint in series [6] was under 3 µL/min/mg. In the series with THP-1 [11], the result was inactive.

As to `FC(F)c1nnc(-c2ccc(Cn3nnc(-c4cccc(Cl)c4)n3)nc2)o1`, the pIC50 in series [1] was 8.80; in series [4], under 5.00. This compound also gave a solubility in [2] of 3.1 µM (≈ 1.21 µg/mL). For the same compound, the pEC50 in [3] was 6.20. In addition, in series [6], the microsomal CLint was under 3 µL/min/mg.

`FC(F)c1nnc(-c2ccc(Cn3nnnc3-c3ccccn3)cc2)o1`: the pIC50 in [1] is 7.50; in [4], under 5.00. In addition, the solubility in [2] stood at 2.6 µM (≈ 0.924 µg/mL). The pEC50 in series [3] was under 5.00. The IC50 with THP-1 [5] is over 251000 nM. Further, the microsomal CLint in series [6] is 5.8 µL/min/mg. The result in the series on THP-1 [11] was inactive.

Take `FC(F)c1nnc(-c2cnc(NC3(c4ccccc4)CCC(F)(F)CC3)nc2)o1`: the negative-log IC50 (pIC50) is 8.40 in series [1], under 5.00 in series [4] and 3.89 in the series with THP-1 [5]. Besides, the solubility in [2] was determined as 2.6 µM (≈ 1.06 µg/mL). In series [3], the pEC50 is 6.20. The IC50 in the series with THP-1 [5] was 158000 nM. In addition, in series [6], the microsomal CLint was 12 µL/min/mg. The Stability entry in series [10] is given as “Unstable”.

Consider `FC(F)c1nnc(-c2ccc(Cn3nnc(-c4ccccn4)n3)cn2)o1`, for which the pIC50 in [1] is under 5.00. Besides, the solubility in series [2] was determined as 120 µM (≈ 42.8 µg/mL). Also, the microsomal CLint in series [6] is under 3 µL/min/mg.

For `FC(F)c1nnc(-c2cnc(Cn3nnc(-c4ccccn4)n3)nc2)o1`, the pIC50 is 7.80 in [1] and under 5.00 in series [4]. This compound also had a solubility in series [2] of 120 µM (≈ 42.9 µg/mL). In [3], the pEC50 was 5.80. Further, the microsomal CLint in series [6] was under 3 µL/min/mg. Also, the half-life is 7.2 h in series [7], 26.4 h in series [8] and under 13.7 h in series [9]. Also, the Stability entry in series [10] is recorded as “Unstable”.

Turning to `CNC(=O)c1csc(-c2nnn(Cc3ccc(-c4nnc(C(F)F)o4)cc3)n2)c1`, the pIC50 in series [1] is 9.00; in [4], under 5.00. The solubility in [2] came to 2.3 µM (≈ 0.96 µg/mL). Also, the pEC50 in series [3] is 6.30. In the series with THP-1 [5], the IC50 is over 251000 nM. Also, the microsomal CLint in series [6] is 7.5 µL/min/mg. Besides, the outcome with THP-1 [11] was inactive.
